Results reported in patent US10213415B2, “Compounds as opioid receptor modulators” (JANSSEN PHARMACEUTICA NV, priority 2004, dated 2019).

Experiments:
rats = experiment: Visceral Hyperalgesia Testing (colorectal balloon distention following zymosan); format: in vivo, rat; settings: 30 mg/kg i.p., 5 rats, repeated distentions of 40 mmHg
Experimental: Method: Rats were chronically instrumented with EMG electrodes in the muscles of the anterior abdominal wall. Distention of an intracolonic balloon, using a barostat apparatus, evoked increases in the EMG recordings that are related to the pressure. Control responses are compared with repeat stimulation 4 hours after zymosan is administered to the colon (FIG. 1).

delta opioid receptor = target: T1, delta opioid receptor (Rattus norvegicus, UniProt P33533); experiment: Rat Brain Delta Opioid Receptor Binding Assay-Version 1a ([3H]naltrindole); settings: rat forebrain membranes, 0.1 nM [3H]naltrindole; margin of error 10-20%; read-out: r Ki δ Ver. 1a
T1 construct: from tissue; host or cells: forebrain of male Wistar rats
T1 sequence (P33533 whole entry): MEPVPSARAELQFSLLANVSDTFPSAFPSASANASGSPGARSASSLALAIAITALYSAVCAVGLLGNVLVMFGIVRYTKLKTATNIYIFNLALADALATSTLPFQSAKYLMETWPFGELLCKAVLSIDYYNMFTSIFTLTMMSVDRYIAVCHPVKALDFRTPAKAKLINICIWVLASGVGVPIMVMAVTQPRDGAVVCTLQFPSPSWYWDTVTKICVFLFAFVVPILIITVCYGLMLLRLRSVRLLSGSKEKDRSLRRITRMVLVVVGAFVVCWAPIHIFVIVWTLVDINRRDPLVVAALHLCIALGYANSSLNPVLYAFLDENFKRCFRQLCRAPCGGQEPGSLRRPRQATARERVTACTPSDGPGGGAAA
Experimental: Male, Wistar rats (150-250 g, VAF, Charles River, Kingston, N.Y.) were killed by cervical dislocation, and their brains removed and placed immediately in ice-cold Tris HCl buffer (50 mM, pH 7.4). The forebrains were separated from the remainder of the brain by a coronal transection, beginning dorsally at the colliculi and passing ventrally through the midbrain-pontine junction. After dissection, the forebrains were homogenized in Tris buffer in a Teflon®-glass homogenizer. The homogenate was diluted to a concentration of 1 g of forebrain tissue per 80 mL Tris and centrifuged at 39,000×g for 10 min. The pellet was resuspended in the same volume of Tris buffer containing 5 mM MgCl2 with several brief pulses from a Polytron homogenizer. This particulate preparation was used for the delta opioid binding assay. Following incubation with 0.1 nM of the delta selective ligand [^3H]naltrindole at 25° C. for 2.5 h in a 96-well plate with total 1 mL, the plate contents were filtered through Wallac filtermat B sheets on a Tomtec 96-well harvester. The filters were rinsed three times with 2 mL of 10 mM HEPES (pH 7.4), and dried in a microwave oven. To each sample area, Betaplate Scint scintillation fluid (LKB) was added and the resulting radioactivity quantified on a LKB (Wallac) 1205 BetaPlate liquid scintillation counter. Kd and Ki values were calculated using the GraphPad PRISM data analysis program.

Row | Structure (SMILES) | hyperalgesic response to colorectal balloon distention following zymosan (rats) | Ki (delta opioid receptor) [nM]
1 | COc1ccc(CN(C(=O)[C@@H](N)Cc2c(C)cc(C(N)=O)cc2C)[C@@H](C)c2nc(-c3ccccc3)c[nH]2)cc1C(=O)O [Cpd 18] | blocked the hyperalgesic response | –
2 | COC(=O)c1ccc(CN(C(=O)[C@@H](N)Cc2ccc(C(N)=O)cc2)[C@@H](C)c2nc(-c3ccccc3)c[nH]2)o1 [Cpd 303] | – | 24.5
3 | Cc1cc(O)cc(C)c1C[C@H](N)C(=O)N(Cc1cccc(C(=O)O)c1)[C@@H](C)c1nc(-c2ccccc2)c[nH]1 [Cpd 48] | – | 0.24
4 | COC(=O)c1ccc(CN(C(=O)[C@@H](N)Cc2c(C)cc(C(N)=O)cc2C)[C@@H](C)c2nc(-c3ccccc3)c[nH]2)o1 [Cpd 257] | – | 14
